In ChEMBL document CHEMBL1201862, “PubChem BioAssay data set” (2004) one finds EC50, IC50 and AC50 data, which are given here for six compounds.

Test [1] has as its target T1, Heat shock factor protein 1 (Mus musculus, UniProt P38532).
T1 sequence (P38532 whole entry): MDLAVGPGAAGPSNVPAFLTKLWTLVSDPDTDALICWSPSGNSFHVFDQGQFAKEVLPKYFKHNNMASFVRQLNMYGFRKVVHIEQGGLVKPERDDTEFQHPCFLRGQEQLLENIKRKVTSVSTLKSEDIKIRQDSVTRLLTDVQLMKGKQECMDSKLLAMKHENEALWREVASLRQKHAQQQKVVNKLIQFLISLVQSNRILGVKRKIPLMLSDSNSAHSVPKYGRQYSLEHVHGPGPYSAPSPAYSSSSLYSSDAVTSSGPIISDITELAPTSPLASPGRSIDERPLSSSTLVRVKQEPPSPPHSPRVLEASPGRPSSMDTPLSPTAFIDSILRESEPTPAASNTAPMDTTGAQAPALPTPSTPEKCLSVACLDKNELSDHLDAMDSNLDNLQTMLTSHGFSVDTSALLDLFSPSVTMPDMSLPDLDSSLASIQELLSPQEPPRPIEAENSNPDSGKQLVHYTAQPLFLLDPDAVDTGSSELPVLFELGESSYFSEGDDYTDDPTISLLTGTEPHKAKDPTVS
Briefly: HSF1 potentiators in luciferase reporter cells, confirmation, cell-based, NIH3T3, luminescence, dose retest (AID 435004).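 Also: stress induced by proteasome inhibitor MG132 added 30 min after compound; luciferase reporter driven by HSF1 response element in NIH3T3 cells; actives raise luminescence as potentiators of the MG132 stress response.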 The test is classed as functional. For orientation: A reporter such as luciferase makes a cellular process visible.

Test [2] addresses NACHT, LRR and PYD domains-containing protein 1 (Homo sapiens, UniProt Q9C000). Briefly: NALP1 inhibitors in yeast, dose response, luminescent (AID 488860). It is filed as functional.
Test [3] is described as follows: growth suppression of PTEN-null colon cells, dose response, cell-based, HCT116 PTEN knockout (AID 1047).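 Also: HCT116 colon tumor cells with PTEN knocked out; cells exposed to compound for 60 hours before readout; potency for loss of cell viability measured by luminescence.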 It is filed as functional.
The target in test [4] is T2, Bifunctional protein GlmU (Mycobacterium tuberculosis, UniProt P9WMN3).
T2 sequence (P9WMN3 whole entry): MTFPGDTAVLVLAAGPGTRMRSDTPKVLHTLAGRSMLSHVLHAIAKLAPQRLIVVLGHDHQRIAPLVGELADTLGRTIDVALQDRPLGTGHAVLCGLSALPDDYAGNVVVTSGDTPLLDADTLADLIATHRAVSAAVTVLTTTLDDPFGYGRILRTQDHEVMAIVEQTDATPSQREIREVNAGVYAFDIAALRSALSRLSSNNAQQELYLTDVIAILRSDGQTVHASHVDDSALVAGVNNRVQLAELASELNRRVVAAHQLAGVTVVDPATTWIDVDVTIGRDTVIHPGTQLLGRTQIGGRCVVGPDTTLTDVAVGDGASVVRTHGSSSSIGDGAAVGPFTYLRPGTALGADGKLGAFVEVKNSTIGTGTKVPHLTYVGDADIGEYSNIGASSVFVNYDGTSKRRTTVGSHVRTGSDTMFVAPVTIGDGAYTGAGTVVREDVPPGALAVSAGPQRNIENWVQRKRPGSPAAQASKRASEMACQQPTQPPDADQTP
Briefly: Inhibitors of Mycobacterial Glucosamine-1-phosphate acetyl transferase (GlmU). Secondary screen. The arrangement: species or system Mycobacterium tuberculosis H37Rv.

Test [5] has as its target T3, Protein RecA (Mycobacterium tuberculosis, UniProt P9WHJ3).
T3 sequence (P9WHJ3 whole entry): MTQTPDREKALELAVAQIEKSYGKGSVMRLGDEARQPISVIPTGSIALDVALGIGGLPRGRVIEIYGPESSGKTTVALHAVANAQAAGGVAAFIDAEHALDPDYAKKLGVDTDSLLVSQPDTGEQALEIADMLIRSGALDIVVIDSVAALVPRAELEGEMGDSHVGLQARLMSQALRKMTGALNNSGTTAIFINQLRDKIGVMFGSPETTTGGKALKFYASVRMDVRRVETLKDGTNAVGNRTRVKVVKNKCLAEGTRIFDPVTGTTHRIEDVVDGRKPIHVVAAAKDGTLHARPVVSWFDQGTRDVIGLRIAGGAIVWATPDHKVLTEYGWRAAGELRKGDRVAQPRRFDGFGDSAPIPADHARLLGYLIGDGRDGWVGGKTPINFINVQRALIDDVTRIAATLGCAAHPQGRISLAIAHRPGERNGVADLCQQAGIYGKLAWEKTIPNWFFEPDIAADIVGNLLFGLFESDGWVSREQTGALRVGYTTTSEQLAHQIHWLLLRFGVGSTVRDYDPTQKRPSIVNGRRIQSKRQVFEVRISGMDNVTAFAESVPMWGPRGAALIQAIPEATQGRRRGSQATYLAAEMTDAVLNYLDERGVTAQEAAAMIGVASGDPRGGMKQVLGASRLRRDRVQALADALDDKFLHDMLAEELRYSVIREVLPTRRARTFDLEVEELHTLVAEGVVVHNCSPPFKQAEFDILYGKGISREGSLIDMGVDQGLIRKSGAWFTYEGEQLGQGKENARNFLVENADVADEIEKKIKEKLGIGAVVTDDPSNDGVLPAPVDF
Description: Fluorescence Cell-Free Homogeneous Dose Retest to Identify Inhibitors of RecA-Intein Splicing Activity. [Related pubchem assays (depositor defined):AID2097, AID2223, AID489010, AID492950]. The test is classed as functional.

In test [6] the target is T4, Replicative DNA helicase DnaB (Mycobacterium tuberculosis, UniProt P9WMR3).
T4 sequence (P9WMR3 whole entry): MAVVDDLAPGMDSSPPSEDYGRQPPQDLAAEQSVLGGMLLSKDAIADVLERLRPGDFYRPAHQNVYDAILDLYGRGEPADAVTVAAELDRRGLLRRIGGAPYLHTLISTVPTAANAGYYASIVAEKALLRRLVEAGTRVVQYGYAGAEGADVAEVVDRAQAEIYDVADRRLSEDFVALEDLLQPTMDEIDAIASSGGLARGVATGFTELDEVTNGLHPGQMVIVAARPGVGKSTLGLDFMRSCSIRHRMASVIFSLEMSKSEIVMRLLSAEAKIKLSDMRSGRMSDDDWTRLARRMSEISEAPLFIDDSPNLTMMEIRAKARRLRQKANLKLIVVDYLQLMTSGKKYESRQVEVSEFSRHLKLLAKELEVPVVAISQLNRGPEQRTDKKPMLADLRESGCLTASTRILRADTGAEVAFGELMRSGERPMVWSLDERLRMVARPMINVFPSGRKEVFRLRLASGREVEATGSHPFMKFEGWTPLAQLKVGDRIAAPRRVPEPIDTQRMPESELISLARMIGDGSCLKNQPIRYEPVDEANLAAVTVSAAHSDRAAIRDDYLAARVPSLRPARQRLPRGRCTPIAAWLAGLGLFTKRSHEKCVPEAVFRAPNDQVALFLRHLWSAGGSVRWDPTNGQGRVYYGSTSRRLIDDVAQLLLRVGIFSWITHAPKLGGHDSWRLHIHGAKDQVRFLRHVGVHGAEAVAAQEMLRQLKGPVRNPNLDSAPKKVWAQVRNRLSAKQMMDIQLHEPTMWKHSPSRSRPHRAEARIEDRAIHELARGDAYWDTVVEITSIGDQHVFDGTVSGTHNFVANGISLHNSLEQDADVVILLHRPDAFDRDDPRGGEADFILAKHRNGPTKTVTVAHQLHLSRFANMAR
Briefly: DnaB intein splicing inhibitors, dose response, biochemical, cell-free fluorescence (AID 449749). The test is classed as functional.

For test [7], the system named is Saccharomyces cerevisiae. Briefly: NALP1 inhibitor project selectivity study, Caspase-1/ASC signal blockade IC50 in S. cerevisiae (AID 488863). The test is classed as functional, organism-based.
Test [8] can be described thus: growth suppression of beta-catenin-knockout colon cells, dose response, cell-based, HCT116, human colon tumor (AID 1045).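 Also: HCT116 colon tumor cells with beta catenin knocked out; cells exposed to compound for 60 hours.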 The test is classed as functional.
Test [9] has as its target DNA dC->dU-editing enzyme APOBEC-3A (Homo sapiens, UniProt P31941). Description: Dose Response confirmation of small molecule APOBEC3A DNA Deaminase Inhibitors via a fluorescence-based single-stranded DNA deaminase assay. [Related pubchem assays (depositor defined):AID493011, AID493024]. It is filed as functional.
Test [10] concerns the target DNA dC->dU-editing enzyme APOBEC-3G (Homo sapiens, UniProt Q9HC16). It is filed as functional.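 Also: Dose-response counterscreen measuring inhibition of APOBEC3G DNA deaminase activity, run while confirming APOBEC3A inhibitors.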
Test [11] deals with T5, Bcl-2-like protein 10 (Homo sapiens, UniProt Q9HD36).
T5 sequence (Q9HD36 whole entry): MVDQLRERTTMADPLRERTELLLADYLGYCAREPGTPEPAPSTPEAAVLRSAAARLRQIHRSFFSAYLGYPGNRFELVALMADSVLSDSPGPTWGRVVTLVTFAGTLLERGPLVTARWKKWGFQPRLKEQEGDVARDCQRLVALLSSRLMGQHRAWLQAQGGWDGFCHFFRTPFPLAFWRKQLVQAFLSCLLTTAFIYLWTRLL
Description: displacers of TR3 peptide from Bcl-B, primary screen, selectivity assay for Bfl-1 inhibitor project, biochemical, fluorescence polarization, FITC-TR3 peptide (AID 748).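 Also: fluorescence polarization from a fluorescein-labelled TR3 peptide binding purified Bcl-B.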

Test [12] has as its target Large T antigen (Simian virus 40, UniProt P03070). It is filed as functional, Betapolyomavirus macacae.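 Also: Confirmatory-stage PubChem screen for compounds that inhibit SV40 T antigen.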
Test [13] addresses Alkaline phosphatase, placental type (Homo sapiens, UniProt P05187). Description: PLAP enzyme inhibitors, confirmation, biochemical, luminescence (AID 1512). The test is classed as functional.
In test [14] the target is T6, Alkaline phosphatase, tissue-nonspecific isozyme (Homo sapiens, UniProt P05186).
T6 sequence (P05186 whole entry): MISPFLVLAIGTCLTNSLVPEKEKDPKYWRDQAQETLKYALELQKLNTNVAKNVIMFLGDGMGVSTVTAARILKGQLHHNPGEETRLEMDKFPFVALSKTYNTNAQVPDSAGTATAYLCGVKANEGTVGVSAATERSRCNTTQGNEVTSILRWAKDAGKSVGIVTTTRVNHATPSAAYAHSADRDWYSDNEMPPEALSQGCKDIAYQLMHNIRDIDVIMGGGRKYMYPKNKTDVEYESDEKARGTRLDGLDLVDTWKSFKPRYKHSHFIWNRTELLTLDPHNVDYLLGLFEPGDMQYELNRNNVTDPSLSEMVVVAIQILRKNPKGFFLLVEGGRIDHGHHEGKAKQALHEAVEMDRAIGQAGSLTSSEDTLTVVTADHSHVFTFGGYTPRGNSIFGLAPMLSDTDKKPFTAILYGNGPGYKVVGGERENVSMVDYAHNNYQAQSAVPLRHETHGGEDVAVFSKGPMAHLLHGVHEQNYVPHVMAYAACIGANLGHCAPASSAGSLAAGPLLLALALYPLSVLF
Briefly: human TNAP enzyme inhibitors, SAR follow-up, biochemical, luminescent, dose response (AID 1056).

For test [15], the target named is T7, Leucine aminopeptidase (Plasmodium falciparum 3D7, UniProt Q8IL11).
T7 sequence (Q8IL11 whole entry): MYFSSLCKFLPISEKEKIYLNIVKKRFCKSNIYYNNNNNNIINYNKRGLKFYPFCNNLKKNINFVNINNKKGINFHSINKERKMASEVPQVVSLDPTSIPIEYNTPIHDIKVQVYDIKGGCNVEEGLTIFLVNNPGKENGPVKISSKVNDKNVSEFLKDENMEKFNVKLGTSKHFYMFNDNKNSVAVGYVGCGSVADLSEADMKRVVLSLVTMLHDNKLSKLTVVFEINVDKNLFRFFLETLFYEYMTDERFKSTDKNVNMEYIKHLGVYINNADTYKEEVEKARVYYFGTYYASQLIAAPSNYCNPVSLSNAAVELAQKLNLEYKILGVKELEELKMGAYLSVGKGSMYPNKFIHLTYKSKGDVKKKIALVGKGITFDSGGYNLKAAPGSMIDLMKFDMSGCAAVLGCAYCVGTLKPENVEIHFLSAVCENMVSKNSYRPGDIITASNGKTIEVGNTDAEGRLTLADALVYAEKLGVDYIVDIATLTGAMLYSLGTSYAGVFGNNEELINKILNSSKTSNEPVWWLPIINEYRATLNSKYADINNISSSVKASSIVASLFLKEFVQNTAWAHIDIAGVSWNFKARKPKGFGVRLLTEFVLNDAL
Briefly: P. falciparum M17LAP inhibitors, primary screen, biochemical, fluorogenic H-Leu-NHMec substrate, 1536-well (AID 1619). The test is classed as functional.

In test [16] the target is Voltage-dependent T-type calcium channel subunit alpha-1H (Homo sapiens, UniProt O95180). Description: Cav3.2 T-type channel inhibitors, cell-based, synthetic library set 1, calcium flux (AID 493022). The test is classed as functional. (Calcium flux is commonly read through the fluorescence of an indicator in the cells.)
Test [17] deals with Eukaryotic translation initiation factor 4H (Homo sapiens, UniProt Q15056). Description: eIF4H inhibition in translation initiation, SAR follow-up (AID 435011). It is filed as functional.
Test [18] deals with Polyadenylate-binding protein 1 (Homo sapiens, UniProt P11940). Description: PABP inhibition in translation initiation, SAR follow-up (AID 435018). It is filed as functional.
The target in test [19] is CAAX prenyl protease 2 (Saccharomyces cerevisiae S288c, UniProt Q03530). The test is classed as biochemical.

“And” between values parts separate entries of the source, which are not always exact repeats. Equal values may be shown once. The source made the active and inactive calls.

Chain of Alkaline phosphatase, placental type (P05187 whole entry): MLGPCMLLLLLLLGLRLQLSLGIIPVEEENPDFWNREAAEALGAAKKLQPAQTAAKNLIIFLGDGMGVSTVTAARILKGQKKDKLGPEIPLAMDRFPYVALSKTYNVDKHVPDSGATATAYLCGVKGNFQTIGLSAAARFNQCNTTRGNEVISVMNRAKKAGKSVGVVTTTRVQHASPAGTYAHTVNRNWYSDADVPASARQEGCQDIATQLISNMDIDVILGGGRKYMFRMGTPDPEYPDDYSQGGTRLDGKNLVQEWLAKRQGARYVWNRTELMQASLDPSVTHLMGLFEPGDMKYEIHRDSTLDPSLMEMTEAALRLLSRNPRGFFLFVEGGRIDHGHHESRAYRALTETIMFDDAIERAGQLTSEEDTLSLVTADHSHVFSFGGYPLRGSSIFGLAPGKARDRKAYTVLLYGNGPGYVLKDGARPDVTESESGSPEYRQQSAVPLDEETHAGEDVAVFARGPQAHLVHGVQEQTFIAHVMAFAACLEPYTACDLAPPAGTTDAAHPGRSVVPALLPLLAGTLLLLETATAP
Chain of DNA dC->dU-editing enzyme APOBEC-3G (Q9HC16 whole entry): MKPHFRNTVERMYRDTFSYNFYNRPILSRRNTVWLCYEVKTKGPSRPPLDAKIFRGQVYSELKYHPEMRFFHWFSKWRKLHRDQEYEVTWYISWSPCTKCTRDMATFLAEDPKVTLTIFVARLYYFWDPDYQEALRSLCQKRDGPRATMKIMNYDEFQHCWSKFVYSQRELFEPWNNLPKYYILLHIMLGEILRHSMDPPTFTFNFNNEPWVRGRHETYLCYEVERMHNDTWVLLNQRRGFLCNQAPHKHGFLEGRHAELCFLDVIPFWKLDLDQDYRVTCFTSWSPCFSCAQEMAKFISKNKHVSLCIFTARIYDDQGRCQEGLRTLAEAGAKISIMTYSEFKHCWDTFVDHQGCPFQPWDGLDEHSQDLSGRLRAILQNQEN
Chain of Large T antigen (P03070 whole entry): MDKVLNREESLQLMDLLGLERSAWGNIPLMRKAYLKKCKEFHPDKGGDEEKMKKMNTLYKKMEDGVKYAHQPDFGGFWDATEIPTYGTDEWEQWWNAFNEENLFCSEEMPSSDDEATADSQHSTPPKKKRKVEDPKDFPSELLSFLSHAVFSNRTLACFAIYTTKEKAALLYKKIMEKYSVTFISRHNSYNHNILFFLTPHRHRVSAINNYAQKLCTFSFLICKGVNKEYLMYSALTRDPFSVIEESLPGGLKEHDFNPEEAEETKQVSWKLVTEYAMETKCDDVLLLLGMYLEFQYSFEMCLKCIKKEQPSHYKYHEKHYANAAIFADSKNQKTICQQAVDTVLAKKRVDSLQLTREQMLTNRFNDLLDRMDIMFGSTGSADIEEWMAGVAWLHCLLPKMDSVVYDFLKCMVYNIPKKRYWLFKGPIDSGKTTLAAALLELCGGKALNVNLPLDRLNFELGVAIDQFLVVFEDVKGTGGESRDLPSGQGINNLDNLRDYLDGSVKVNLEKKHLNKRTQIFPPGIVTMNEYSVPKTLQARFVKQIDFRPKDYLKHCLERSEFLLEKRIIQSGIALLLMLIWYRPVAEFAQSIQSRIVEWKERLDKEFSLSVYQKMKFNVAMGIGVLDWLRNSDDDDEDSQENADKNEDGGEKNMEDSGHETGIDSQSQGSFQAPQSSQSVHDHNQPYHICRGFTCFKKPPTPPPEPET
Chain of CAAX prenyl protease 2 (Q03530 whole entry): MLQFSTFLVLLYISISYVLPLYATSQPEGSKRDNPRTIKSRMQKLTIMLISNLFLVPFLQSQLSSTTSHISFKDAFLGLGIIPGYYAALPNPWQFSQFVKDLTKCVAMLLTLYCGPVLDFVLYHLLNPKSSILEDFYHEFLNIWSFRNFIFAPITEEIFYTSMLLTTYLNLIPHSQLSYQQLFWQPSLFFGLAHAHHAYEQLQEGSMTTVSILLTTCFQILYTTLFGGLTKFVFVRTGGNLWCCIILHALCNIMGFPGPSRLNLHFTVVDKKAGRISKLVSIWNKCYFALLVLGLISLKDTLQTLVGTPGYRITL
Chain of NACHT, LRR and PYD domains-containing protein 1 (Q9C000 1-1212 limits assumed): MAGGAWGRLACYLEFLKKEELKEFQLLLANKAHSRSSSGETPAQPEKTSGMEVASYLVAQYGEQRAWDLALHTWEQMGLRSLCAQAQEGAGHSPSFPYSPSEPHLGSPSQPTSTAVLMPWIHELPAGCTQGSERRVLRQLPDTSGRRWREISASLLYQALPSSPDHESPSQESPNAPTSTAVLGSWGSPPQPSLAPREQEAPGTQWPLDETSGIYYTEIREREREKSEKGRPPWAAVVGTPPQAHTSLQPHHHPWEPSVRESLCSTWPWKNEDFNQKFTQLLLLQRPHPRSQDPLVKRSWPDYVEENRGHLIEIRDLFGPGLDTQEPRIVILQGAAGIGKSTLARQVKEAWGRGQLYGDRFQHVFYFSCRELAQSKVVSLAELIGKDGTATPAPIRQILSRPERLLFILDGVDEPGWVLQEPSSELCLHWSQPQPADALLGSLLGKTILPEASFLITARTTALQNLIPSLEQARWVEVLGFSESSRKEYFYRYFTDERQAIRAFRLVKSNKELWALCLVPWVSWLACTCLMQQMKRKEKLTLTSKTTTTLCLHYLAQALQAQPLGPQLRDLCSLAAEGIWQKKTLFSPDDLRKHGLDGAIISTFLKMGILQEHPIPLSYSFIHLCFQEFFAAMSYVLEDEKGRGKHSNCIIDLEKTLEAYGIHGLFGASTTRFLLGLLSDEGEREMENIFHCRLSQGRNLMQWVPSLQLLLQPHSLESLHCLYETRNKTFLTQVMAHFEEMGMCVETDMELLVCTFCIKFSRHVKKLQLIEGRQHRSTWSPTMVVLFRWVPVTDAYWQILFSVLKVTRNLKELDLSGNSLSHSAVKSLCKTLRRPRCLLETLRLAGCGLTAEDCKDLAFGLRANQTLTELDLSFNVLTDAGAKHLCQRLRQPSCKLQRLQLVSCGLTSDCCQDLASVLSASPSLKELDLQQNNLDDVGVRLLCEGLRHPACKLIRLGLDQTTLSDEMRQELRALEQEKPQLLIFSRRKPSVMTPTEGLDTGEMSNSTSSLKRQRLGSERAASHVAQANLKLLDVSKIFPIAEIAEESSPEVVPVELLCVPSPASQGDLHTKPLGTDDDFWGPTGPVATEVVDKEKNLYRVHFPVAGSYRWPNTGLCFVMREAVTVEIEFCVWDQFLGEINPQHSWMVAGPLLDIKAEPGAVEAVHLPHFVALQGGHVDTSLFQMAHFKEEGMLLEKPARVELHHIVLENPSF
Chain of NACHT, LRR and PYD domains-containing protein 1 (Q9C000 1213-1473 limits assumed): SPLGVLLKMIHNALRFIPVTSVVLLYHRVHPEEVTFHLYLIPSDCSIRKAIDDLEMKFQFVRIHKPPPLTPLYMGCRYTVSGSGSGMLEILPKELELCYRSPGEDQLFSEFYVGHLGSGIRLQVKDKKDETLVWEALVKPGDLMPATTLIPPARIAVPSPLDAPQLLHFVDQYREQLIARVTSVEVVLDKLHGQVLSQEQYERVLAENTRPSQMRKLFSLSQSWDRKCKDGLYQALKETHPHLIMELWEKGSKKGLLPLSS
Chain of Polyadenylate-binding protein 1 (P11940 whole entry): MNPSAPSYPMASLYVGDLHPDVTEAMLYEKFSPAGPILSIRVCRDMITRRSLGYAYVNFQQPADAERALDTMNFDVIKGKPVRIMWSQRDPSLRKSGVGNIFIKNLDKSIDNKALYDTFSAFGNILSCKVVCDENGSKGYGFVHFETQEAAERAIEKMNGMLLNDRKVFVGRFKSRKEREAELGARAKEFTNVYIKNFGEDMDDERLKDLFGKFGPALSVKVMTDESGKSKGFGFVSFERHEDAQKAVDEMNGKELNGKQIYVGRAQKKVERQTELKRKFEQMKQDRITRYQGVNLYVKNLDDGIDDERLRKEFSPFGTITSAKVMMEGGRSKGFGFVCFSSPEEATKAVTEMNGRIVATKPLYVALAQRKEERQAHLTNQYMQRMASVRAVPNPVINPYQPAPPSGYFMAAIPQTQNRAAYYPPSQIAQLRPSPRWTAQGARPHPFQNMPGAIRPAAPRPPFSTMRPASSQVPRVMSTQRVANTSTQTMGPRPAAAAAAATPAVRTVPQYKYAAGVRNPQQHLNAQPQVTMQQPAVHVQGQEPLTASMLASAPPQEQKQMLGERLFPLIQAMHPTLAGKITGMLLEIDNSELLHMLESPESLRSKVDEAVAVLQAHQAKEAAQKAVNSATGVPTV
Chain of DNA dC->dU-editing enzyme APOBEC-3A (P31941 whole entry): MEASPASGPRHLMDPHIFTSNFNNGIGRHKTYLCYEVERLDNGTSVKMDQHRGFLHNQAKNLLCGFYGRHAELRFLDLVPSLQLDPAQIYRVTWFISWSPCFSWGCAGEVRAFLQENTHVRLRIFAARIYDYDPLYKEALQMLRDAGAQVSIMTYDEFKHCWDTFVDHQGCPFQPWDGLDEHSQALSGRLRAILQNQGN

Consider `Cn1cnc([N+](=O)[O-])c1S(=O)(=O)c1ccc(Cl)cc1`, for which the EC50 (in general, the concentration at which the effect is half-maximal) in [1] was 17.8 µM (active); in test [3], 6.79 µM (active); in test [5], 8.29 µM (active); in test [8], 5.88 µM (active). The values for the IC50 in [2], in test [4] and in test [7] were 17.7 µM (active), 101 µM (active) and 19.8 µM (active), respectively. Further, in test [6], the AC50 – broadly, the concentration giving half of the maximal activity seen – is 19.5 µM (active).

As to `Cc1n(Cc2ccccc2)c2ccc(Cl)cc2[n+]1C`, the figures for the IC50 in test [9] and in [10] were 2.46 µM (active) and 4.75 µM (active), respectively.

For `C=CCn1c(SCC(=O)c2ccc(O)c(O)c2)nnc1-c1ccccc1OC`, the IC50 (as a rule, the midpoint of a concentration-inhibition curve) is > 100 µM (inactive) in test [11]; 14.7 µM (active) in test [12]; 2.6 µM (active) and 2.79 µM (active) in test [13]; > 100 µM (inactive) and 44.8 µM (active) in [14]; 22.8 µM (active) in test [15].

In the case of `O=C(COc1ccc(F)c(Cl)c1)Nc1nnc(-c2ccc(F)cc2)o1`, the EC50 in test [16] is 1.7 µM (active).

For `CCN1C(=O)CC(C(=O)Nc2ccc(F)cc2)S/C1=N\c1ccccc1OC` (centres undefined), the IC50 in test [17] and in [18] was > 100 µM (inactive) each time.

Turning to `O=C(c1cnc(Cl)c(Cl)c1)N1CCC(Cc2ccccc2)CC1`, the AC50 in test [19] is 18.2 µM (active).
